Measured values taken from patent US20020040062A1, “Protein kinase C activators and their use in decreasing expression of cell antigens” (The Trustees of Columbia University, priority 1993, published 2002).
Marks after values point to notes of the source that are not given here.

B1: IFN-γ: recombinant human immune interferon produced in Escherichia coli (protein, UniProt P01579 24-161, looked up)
Interferon gamma: QDPYVKEAENLKKYFNAGHSDVADNGTLFLGILKNWKEESDRKIMQSQIVSFYFKLFKNFKDDQSIQKSVETIKEDMNVKFFNSNKKKRDDFEKLTNYSVTDLNVQRKAIHELIQVMAELSPAAKTGKRKRSQMLFRG
B2: IFN-β: recombinant human fibroblast interferon with a serine substituted for a cysteine at position 17 (protein, UniProt P01574 22-187, looked up, variant C17S)
Interferon beta: MSYNLLGFLQRSSNFQSQKLLWQLNGRLEYCLKDRMNFDIPEEIKQLQQFQKEDAALTIYEMLQNIFAIFRQDSSSTGWNETIVENLLANVYHQINHLKTVLEEKLEKEDFTRGKLMSSLHLKRYYGRILHYLKAKEYSHCAWTIVRVEILRNFYFINRLTGYLRN

Legend:
Format in all cases: cell-based, human
HLA Class II antigens = assay: FACS analysis of HLA Class II antigen surface expression in T47D cells; details: for HLA Class II level of upregulation versus untreated control cells (equivalent to 1.0): presence or absence of 0.1 μg/ml H-7; for HLA Class II relative increase in expression versus untreated controls (equivalent to 1.0): presence or absence of 1.0 μg/ml H-7; for fold increase in HLA Class II expression: 500 units/ml IFN-α, IFN-β or IFN-γ as in Table 3
Text: (§1) IgG1 murine monoclonal antibody Cu18 and Cu46 recognize two different epitopes of a highly restricted breast carcinoma associated glycoprotein of Mr 225,000 to 250,000 (BCA 225). This TAA is expressed intracytoplasmically and on the membrane of 94% of breast tumors tested and in the T47D human breast carcinoma cell line. BCA 225 is shed into the culture medium by T47D cells and into the sera of breast cancer patients. IgG2a monoclonal antibody L243 (anti HLA Class II-DR) recognizes a monomorphic HLA Class II-DR-α epitope (ATCC M355). Monoclonal antibody CL203.4 [40], which recognizes ICAM-I, was kindly provided by Dr. S. Ferrone, New York Medical College, NY. The c-erbB-2 monoclonal antibody which recognizes the extracellular domain of c-erbB-2 was obtained from Triton Biosciences, Inc., Alamedia, Calif. Monoclonal antibodies Cu18 and Cu46 were used at 0.05 μg/ml and monoclonal antibodies interacting with HLA Class II-DR, ICAM-1 and c-erbB-2 were used at 10 μg/ml.
(§2) T47D cells treated with the various compounds were analyzed by flow cytometry using appropriate monoclonal antibody concentrations as described previously. Briefly, 1×10^5 cells were incubated with the test antibody for 30 min at 4° C., washed 3× with PBS and incubated with a goat a mouse F (ab)2 FITC conjugated test antibody at a 1:40 dilution for 30 min at 4° C. Cells were then washed 3× with PBS and analyzed on a FACStar (Beckon Dickinson, Mountain View, Calif.) or a Coulter Epics IV FACS (Coulter, Hialeah, Fla.). Results are expressed as mean fluorescence intensity (MFI) units which were determined as described previously. MFI=(mean channel fluorescence in fluorescence positive antibody-binding cells×% of fluorescence positive antibody-binding cells)−(mean channel fluorescence in unstained cells×% of fluorescence positive cells in the unstained population). All studies were performed a minimum of three or four times with duplicate samples in each experiment.

BCA 225 [1] = assay: FACS analysis of BCA 225 surface expression in T47D cells; details: 72 hr; for BCA 225 Expression, level of enhancement relative to control (equivalent to 1.0): presence or absence of 0.1 μg/ml H-7
Text: as §1, with “μg/ml. For each experiment, isotype matched control backgrounds (IgG for Cu18, Cu46 and ICAM-1, IgG2a for HLA Class Ii and IgG2b for c-erbB-2) were subtracted from the experimental results. Background from antimouse IgG FITC antibody was also subtracted from experimental results. Applicants never observed backgrounds higher than 2% of total cells for isotypic mouse IgG or higher than 5% for antimouse IgG FITC.” for “μg/ml.”
as §2, with “experiment. Replicate samples within individual experiments varied by ≦10% and variation between experiments were generally ≦20%.” for “experiment.”

BCA 225 [2] = assay: BCA 225 synthesis, double-determinant ELISA of T47D cell lysates; details: T47D cells, 72 hr
Method: (§3) After appropriate incubation times with the various compounds cell lysates were prepared from T47D cells. Cells were washed 3× in PBS, pH 7.6, pelleted and incubated for 1 hr at room temperature in 20 mM Tris HCl, pH 7.4, with PMSF. Cultures were then homogenized with a Teflon homogenizer, centrifuged at 3000 RPM for 10 min at 4° C. and the supernatant was mixed 1:2 with 20 mM Tris-HCl, pH 7.4, containing 0.5% NP40 (Sigma). After 1 hr at 4° C., the mixture was spun at 3000 RPM for 10 min and the supernatant was passed through an EXTRACTIGEL column (Pierce, Ill.) to remove excess detergent. Protein concentration was determined by the BCA micro-method (Pierce, Ill.). BCA 225 levels in cell extracts and supernatants from control and treated T47D cells were quantitated using a double-determinant ELISA assay. Briefly, Cu18 monoclonal antibody coated Nunc Immunoplates (Nunc, Denmark) were blocked with 1% BSA (Sigma, RIA Reagent Grade) and incubated with a 1:2 dilution of supernatant in duplicate. Standard values for a partially purified BCA 225 preparation were used at a range of 0 to 10 μg/ml in RPMI 1640 plus 10% FBS (T47D growth medium). After 2 hr incubation and three washings with PBS 0.1% Tween 20 a Cu46 monoclonal antibody conjugated to peroxidase was applied to the plate, incubated for 2 hr, washed 6× in PBS 0.1% Tween 20 and the reaction was developed with […] OPD (Sigma, St. Louis) and 4 μl of 30% H2O2 in McIlvans buffer, pH […]. The plates were read on a Dynatech Elisa reader and a linear standard curve was generated and used to calculate the relative amount of BCA 225 in cell lysates and shed into the culture medium. Results were adjusted to ng BCA 225 per mg of protein, or per 1×10^6 cells. Replicate samples varied by ≦10% and replicate experiments varied by ≦20%.

BCA 225 [3] = assay: BCA 225 shedding into culture medium, double-determinant ELISA; details: T47D cells; for BCA 225 Shedding / BCA 225 Shedding, level of enhancement relative to control (equivalent to 1.0) / BCA 225 Shedding, relative change in comparison with controls (equivalent to 1.0): 72 hr; for ability to induce shedding of BCA 225: Table 2
Method: as §3

[4] = 0.1 μg/ml TPA, 0.1 μg/ml MEZ or 0.25 μg/ml ADMB
[5] = 0.1 μg/ml TPA, 0.1 μg/ml MEZ or 0.25 μg/ml ADMB, presence or absence of 0.1 μg/ml H-7, CU18 antibody
[6] = 0.1 μg/ml TPA, 0.1 μg/ml MEZ or 0.25 μg/ml ADMB, presence or absence of 0.1 μg/ml H-7
[7] = 72 hr, 0.1 μg/ml TPA or MEZ, presence or absence of 0.1 μg/ml H-7, FACStar
[8] = 72 hr, 500 units/ml IFN-β or 50 units/ml IFN-γ
[9] = 72 hr, 500 units/ml IFN-β or 50 units/ml IFN-γ, presence or absence of 1.0 μg/ml H-7, Coulter Epics IV FACS
[10] = 500 units/ml IFN-β or 50 units/ml IFN-γ, presence or absence of 1.0 μg/ml H-7

Row | Molecule | efficacy of upregulation of HLA Class II antigens (fold-change in MFI, FIG. 2) (HLA Class II antigens; 72 hr, 0.1 μg/ml of ADMB, TPA or MEZ) | BCA 225 Expression, level of enhancement relative to control (equivalent to 1.0) (BCA 225 [1]; [4]) | BCA 225 Expression (BCA 225 [1]; [5]) | BCA 225 Synthesis (BCA 225 [2]; [6]) | BCA 225 Synthesis, level of enhancement relative to control (equivalent to 1.0) (BCA 225 [2]; [6]) | BCA 225 Shedding (BCA 225 [3]; [6]) | BCA 225 Shedding, level of enhancement relative to control (equivalent to 1.0) (BCA 225 [3]; [6]) | ability to induce shedding of BCA 225 (BCA 225 [3]) | HLA Class II level of upregulation versus untreated control cells (equivalent to 1.0) (HLA Class II antigens; 72 hr, 0.1 μg/ml TPA or MEZ) | Antigenic Expression (MFI) HLA Class II (HLA Class II antigens; [7]) | HLA Class II relative increase in expression versus untreated controls (equivalent to 1.0) (HLA Class II antigens; [8]) | Antigenic Expression (MFI) HLA Class II (HLA Class II antigens; [9]) | BCA 225 Expression (BCA 225 [1]; [10]) | BCA 225 Expression, relative change in comparison with controls (equivalent to 1.0) (BCA 225 [1]; [10]) | BCA 225 Synthesis (BCA 225 [2]; [10]) | BCA 225 Synthesis, relative change in comparison with controls (equivalent to 1.0) (BCA 225 [2]; [10]) | BCA 225 Shedding (BCA 225 [3]; [10]) | BCA 225 Shedding, relative change in comparison with controls (equivalent to 1.0) (BCA 225 [3]; [10]) | fold increase in HLA Class II expression (HLA Class II antigens)
1 | CCCCCCCCCCN(C)c1cc(CO)cc(NC(C)=O)c1 [ADMB, 3-(N-acetylamino)-5-(N-decyl-N-methylamino)-benzyl alcohol] | somewhat more effective than TPA and MEZ | 2.0 | 12,825 MFI | 299 ng/mg protein | 1.8 | 26 ng/ml/10^6 cells | 0.9 | did not induce this effect | – | – | – | – | – | – | – | – | – | – | –
2 | CC1CNCCN1S(=O)(=O)c1cccc2cnccc12.Cl.Cl (stereo not drawn) [H-7, 1-(5-isoquinolinesulfonyl)-2-methylpiperazine dihydrochloride] | – | 0.8 | 5,428 MFI | 142 ng/mg protein | 0.9 | 23 ng/ml/10^6 cells | 0.8 | – | (1.3)^b | 4,563 MFI | 1.2 | 3,490 MFI | 2,560 MFI | 0.9 | 230 ng/mg protein | 1.0 | 38 ng/ml/10^6 cells | 0.8 | –
3 | C=C(C)[C@@]12O[C@@]3(c4ccccc4)O[C@@H]1[C@@H]1[C@@H]4O[C@]4(CO)[C@@H](O)[C@]4(O)C(=O)C(C)=C[C@H]4[C@@]1(O3)[C@H](C)[C@H]2OC(=O)/C=C/C=C/c1ccccc1 [MEZ, mezerein] | – | 2.5 | 16,065 MFI | 507 ng/mg protein | 3.1 | 147 ng/ml/10^6 cells | 5.3 | enhance shedding of BCA 225 | (3.0) | 10,260 MFI | – | – | – | – | – | – | – | – | –
4 | CCCCCCCCCCCCCC(=O)O[C@@H]1[C@@H](C)[C@@]2(O)[C@@H](C=C(CO)C[C@]3(O)C(=O)C(C)=C[C@@H]23)[C@H]2C(C)(C)[C@]12OC(C)=O [TPA, 12-0-tetradecanoyl-phorbol-13-acetate] | – | 1.8 | 11,696 MFI | 394 ng/mg protein | 2.4 | 84 ng/ml/10^6 cells | 3.0 | enhance shedding of BCA 225 | (2.9) | 9,984 MFI | – | – | – | – | – | – | – | – | –
5 | B1 | – | – | – | – | – | – | – | – | – | – | 69.2 | 202,102 MFI | 9,069 MFI | 3.2 | 722 ng/mg protein | 3.2 | 64 ng/ml/10^6 cells | 1.4 | 69 fold
6 | B2 | – | – | – | – | – | – | – | – | – | – | 10.8 | 31,413 MFI | 5,716 MFI | 2.0 | 374 ng/mg protein | 1.7 | 69 ng/ml/10^6 cells | 1.5 | 11 fold
